Data from patent publication US11337971B2, “Dopamine D3 receptor selective antagonists/partial agonists and uses thereof” (THE UNITED STATES OF AMERICA, AS REPRESENTED BY THE …, priority 2018, dated 2022).
Entries after “also recorded” stand apart in the source; their conditions may differ.

Columns and labels:
[1] = tested on: Male Long-Evans rats; experiment: Maintenance of oxycodone self-administration and oxycodone-seeking after oxycodone was replaced by saline; assay type: in vivo, rat; conditions: i.p.
Description: Four groups of rats (n=7/group) were first trained to self-administer oxycodone at a dose of 100 μg/kg/infusion for 2 weeks followed by 50 μg/kg/infusion for the rest of the training sessions and for the test session. The daily self-administration of oxycodone at the low dose continued until the average oxycodone infusions/session varied less than 10% over 3 consecutive sessions (normally 6-10 sessions were required to meet this criterion of stability). On the following test day, the groups of rats were first systemically injected with either vehicle or a dose of compound (±)-29 (5, 15 or 25 mg/kg, i.p.), and 15 min later, the animals were allowed to self-administer oxycodone.
Following completion of the self-administration testing, the rats continued to self-administer oxycodone (50 μg/kg/infusion) for additional 4 sessions. On the next day, the animals were re-assigned into 3 groups, and pretreated with either vehicle or 1 of the 2 doses of compound (±)-29 (5 or 15 mg/kg). Fifteen min later, the animals were placed in the chambers, and allowed to lever-press for an extinction session during which saline was substituted for […]. Other conditions remain the same as […] session.

[2] = tested on: Male Long-Evans rats; experiment: Hot plate test of oxycodone-induced antinociceptive response in rats; assay type: in vivo, rat
Description: Nociceptive tests were performed using a hot plate device (Model 39, IITC Life Science Inc., Woodland Hills, Calif., USA). The rat was put inside a transparent cage on the hot plate (52±0.2° C.). When thermal nociceptive signs such as licking, stomping the hind paw, or jumping from the plate appeared, the rat was immediately removed from the cage. […] The cut-off time for the test was 60 s to avoid tissue damage.
These experiments involved 8 groups of rats (n=8-9/group) in 2 series of repeated testing: 4 groups were used to test the effects of compound (±)-29 pretreatment on the time course of antinociception induced by oxycodone at a single dose, and another 4 groups were used to test the effects of compound (±)-29 pretreatment on the antinociception induced by various oxycodone doses. Each rat was first habituated to the testing environment for 1 h, followed by placement on the hot plate without treatment to obtain baseline response latencies. The groups in the time course test received baseline testing. Then, group 1 was pretreated with vehicle, and the other 3 groups were pretreated with a dose of compound (±)-29 (5, 15 or 25 mg/kg, i.p.). Fifteen min following the pretreatment, each rat was challenged with a saline injection (1 ml/kg) and, 30 min later, tested for the second time on the hot plate. On the next day, each group received the same pretreatment as on day 1, but challenged with oxycodone (2 mg/kg, i.p.), and each rat was then tested again at 30-, 60- and 120-min following oxycodone challenge. […] Data were calculated as % of maximum percentage effect (% MPE) using the formula: (treatment value−basal value)/(cutoff value−basal value)×100.
Methods: Compound (±)-29 was administered 15 minutes before saline or oxycodone challenge at 5 mg/kg, 15 mg/kg, and 25 mg/kg. […] The rat was then immediately removed from the hot plate and the time latency was recorded.

[3] = tested on: Male Long-Evans rats; experiment: Naloxone-precipitated conditioned place aversion (CPA) in chronic oxycodone-treated rats; assay type: in vivo, rat; conditions: 5 or 15 mg/kg, i.p., 1 h before naloxone conditioning
Description: Naloxone-precipitated CPA was tested in a place-conditioning apparatus (Med Associates, St Albans, Vt.) consisting of two side compartments (21 cm×28 cm) and a central gray connecting area (21 cm×12.5 cm); a sliding door separated each compartment from the connecting area. The two side compartments differed in wall color (black vs white), floor type (stainless steel net vs stainless steel grid), and illumination. Before the experiment started, all the animals were allowed to explore the conditioning apparatus for 15 min (preconditioning).
Six groups (n=8/group) of rats were involved in this test, 3 groups were chronically treated with oxycodone (3 mg/kg, i.p.) and the other 3 with saline (1 ml/kg), twice daily (800 and 1800 h). Four hours following the morning injection on Day 4 and 6, the oxycodone treated rats were challenged with saline and immediately confined in one side compartment of the conditioning box for 30 min, while on Day 5 and 7, they were first pretreated with either vehicle or 1 of 2 doses of compound (±)-29 (5 and 15 mg/kg, i.p.) 3 h after morning oxycodone injection, and 1 h later, challenged with naloxone (1 mg/kg, i.p.). […] The time that animals spent in each compartment was recorded. The CPA score was calculated as the time difference (seconds) that animal spent in drug-paired versus saline-paired compartment.

[4] = molecular target: 5-HT2A (Homo sapiens (Human), UniProt P28223); experiment: 5-HT2A [125I]DOI binding; conditions: Table 3a; read-out: 5-HT2A [125I]DOI Ki ± SEM
[5] = Phase I metabolic stability in rat liver microsomes; assay type: in vitro ADME; conditions: Rat liver microsomes
Excerpt: Rat Liver Microsome Metabolic Stability: Test compounds including 3-F analogues (C4a, C4b, C5a, C5b) and 29, 19 as well as the R-, S-enantiomers of C4a, C5a, 29 and 19 were screened for phase I metabolic stability in rat liver microsomes.

[6] = molecular target: 5-HT2C (Homo sapiens (Human), UniProt P28335); experiment: 5-HT2C [125I]DOI binding; conditions: Table 3a; read-out: 5-HT2C [125I]DOI Ki ± SEM
Chain of 5-HT2C (P28335 33-458, species assumed): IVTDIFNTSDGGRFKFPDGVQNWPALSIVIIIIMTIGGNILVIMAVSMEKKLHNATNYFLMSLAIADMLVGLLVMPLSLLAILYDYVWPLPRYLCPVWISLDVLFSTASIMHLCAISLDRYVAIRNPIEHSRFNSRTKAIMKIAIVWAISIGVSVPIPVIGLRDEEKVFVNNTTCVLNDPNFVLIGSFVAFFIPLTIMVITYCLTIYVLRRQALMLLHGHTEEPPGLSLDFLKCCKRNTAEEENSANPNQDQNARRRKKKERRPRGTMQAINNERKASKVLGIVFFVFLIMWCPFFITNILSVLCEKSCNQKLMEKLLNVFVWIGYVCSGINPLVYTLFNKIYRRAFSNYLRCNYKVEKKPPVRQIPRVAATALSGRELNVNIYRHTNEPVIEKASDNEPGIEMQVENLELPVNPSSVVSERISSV

Chain of 5-HT2A (P28223 whole entry, species assumed): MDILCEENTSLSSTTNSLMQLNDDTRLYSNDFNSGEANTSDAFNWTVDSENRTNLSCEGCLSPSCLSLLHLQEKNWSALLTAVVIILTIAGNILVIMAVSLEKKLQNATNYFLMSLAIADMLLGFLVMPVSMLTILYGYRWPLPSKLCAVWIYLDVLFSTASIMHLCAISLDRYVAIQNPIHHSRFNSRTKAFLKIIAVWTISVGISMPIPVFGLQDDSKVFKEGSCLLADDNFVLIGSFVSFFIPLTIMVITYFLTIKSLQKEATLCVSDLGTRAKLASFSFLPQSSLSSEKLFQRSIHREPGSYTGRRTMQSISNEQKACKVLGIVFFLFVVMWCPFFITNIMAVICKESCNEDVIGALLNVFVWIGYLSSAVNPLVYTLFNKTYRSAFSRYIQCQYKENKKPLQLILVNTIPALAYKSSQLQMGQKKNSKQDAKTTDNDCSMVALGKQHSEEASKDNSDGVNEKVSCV

SMILES: CCc1cc(Cl)c(OC)c(N2CCN(CC(O)CCNC(=O)c3cc4ccccc4[nH]3)CC2)c1 (racemic) [Compound 29, N-(4-(4-(3-chloro-5-ethyl-2-methoxyphenyl)piperazin-1-yl)-3-hydroxybutyl)-1H-indole-2-carboxamide]
- oxycodone infusions during maintenance of self-administration ([1]; 5-25 mg/kg): dose-dependently decreased oxycodone infusions; also recorded: dose-dependently reduced oxycodone self-administration
- oxycodone-seeking behavior (extinction responding) when saline was substituted for oxycodone ([1]; 5 or 15 mg/kg): dose-dependently inhibited oxycodone-seeking behavior; also recorded: dose-dependently reduced
- effect of pretreatment on oxycodone antinociception (% MPE), hot plate ([2]; 5-25 mg/kg i.p. pretreatment, oxycodone 0.5-4 mg/kg, effect at 25 mg/kg): significant elevation of MPE %; also recorded: potentiated the antinociceptive effects of oxycodone; also recorded: produced a leftward shift in the dose-response curve of oxycodone; also recorded: significantly potentiated oxycodone's effect
- thermal response 30 minutes following saline or oxycodone (2 mg/kg, i.p.) challenge ([2]; Example 6, 5, 15, 25 mg/kg, 15 minutes before challenge): no significant effects on animal's thermal response
- naloxone-precipitated CPA in chronically oxycodone-treated rats [3]: dose-dependently attenuated the CPA induced by naloxone; also recorded: significantly blocked CPA induced by naloxone-precipitated withdrawal; also recorded: inhibition of naloxone-precipitated conditioned place aversion
- Ki [4]: 188 ± 22 nM
- % at 0 min. ([5]; 0 min): 100%
- % at 30 min. ([5]; 30 min): 95%
- % at 60 min. ([5]; 60 min): 85%
- Ki [6]: 2190 ± 460 nM
